Active and inactive are the calls of the source. The rule behind the calls is not given here.

A short description of series [1]: Inhibition of amyloid beta (1-42) aggregation at 20 uM after 48 hrs by thioflavin T fluorescence method relative to control.
A short description of series [2]: Inhibition of amyloid beta (1-42) aggregation at 20 uM after 24 hrs by transmission electron microscopy.
Series [3] relates to SH-SY5Y. Kind of series: Neuroprotective activity in human SH-SY5Y cells assessed as decrease in tertiary butylhydroperoxide-induced radical formation incubated for 24 hrs prior to tertiary butylhydroperoxide challenge measured after 30 mins by DCFH-DA staining-based fluorescence assay. Type of series: functional, cell-based.
Series [4] has as its system SH-SY5Y. As to the kind of experiment: Cytotoxicity against human SH-SY5Y cells assessed as cell viability at 60 uM after 48 hrs by MTT assay. The series is classed as cell-based. For orientation: Tetrazolium assays rely on reduction of a dye to a coloured formazan, in cell work by metabolically active cells.
A short description of series [5]: Antioxidant activity assessed as trolox equivalent of AAPH-induced radical scavenging activity incubated for 10 mins prior to APPH challenge measured every minute for 120 mins by ORAC assay. The series is classed as functional.
Series [6] deals with SH-SY5Y. As to the kind of experiment: Cytotoxicity against human SH-SY5Y cells assessed as cell viability at 25 uM after 48 hrs by MTT assay. Type of series: cell-based.
Series [7] relates to SH-SY5Y. Kind of series: Cytotoxicity against human SH-SY5Y cells assessed as cell viability at 12.5 to 25 uM after 48 hrs by MTT assay. Type of series: cell-based.
Series [8] relates to SH-SY5Y. As to the kind of experiment: Neuroprotective activity in human SH-SY5Y cells assessed as decrease in tertiary butylhydroperoxide-induced radical formation at 10 uM incubated for 24 hrs prior to tertiary butylhydroperoxide challenge measured after 30 mins by DCFH-DA staining-based fluorescence assay. Type of series: functional. Set-up: scale not given: the % may be the effect or the level left.

Take `Oc1ccc(/C=C/c2cc(O)cc(O)c2)cc1` [RESVERATROL]: the inhibition – broadly, the percentage by which the read-out fell short of the control – in series [1] turned out to be 69.7%. Also, the inhibition result in series [2] was “Active”. Further, the Activity entry with SH-SY5Y [3] was “Dose-dependent effect”; in the series with SH-SY5Y [4] it was “Toxic”.

The molecule `Oc1cc(O)cc(/C=C/c2ccncc2)c1` came in with an inhibition in series [1] of 13.6%. Also, in series [5], the Activity is 1.71 equiv.

As to `Oc1cc(O)cc(/C=C/c2ccc(NC3CCCCC3)cc2)c1`, the inhibition in series [1] was found to be 65.5%. Further, the Activity in series [5] was determined as 2.25 equiv.

`CCNc1ccc(/C=C/c2cc(O)cc(O)c2)cc1` displayed an inhibition in series [1] of 68.6%. Moreover, the results for the Activity (in series [5]; in the series with SH-SY5Y [3]; in the series on SH-SY5Y [6]) were 5.19 equiv, “Dose-dependent effect” and “Toxic”, respectively.

Take `Oc1cc(O)cc(/C=C/c2ccc(NC3CCCC3)cc2)c1`: the inhibition in series [1] was found to be 68.7%. Also, the Activity in series [5] was 3.37 equiv.

In turn, `CCN(CC)c1ccc(/C=C/c2cc(O)cc(O)c2)cc1` came in with an inhibition in series [1] of 64.8%. In series [5], the Activity was 3.31 equiv.

As for `CNc1ccc(/C=C/c2cc(O)cc(O)c2)cc1`, the inhibition in series [1] was found to be 63.7%. Moreover, the Activity was 5.54 equiv in series [5], “Dose-dependent effect” in the series with SH-SY5Y [3] and “Non-toxic” in the series with SH-SY5Y [7].

`CN(C)c1ccc(CCc2cc(O)cc(O)c2)cc1` yielded an inhibition in series [1] of 48.5%. Besides, the Activity in series [5] turned out to be 5.21 equiv.

The molecule `CCCNc1ccc(/C=C/c2cc(O)cc(O)c2)cc1` registered an inhibition in series [1] of 66.7%. The Activity in series [5] was 4.33 equiv.

As for `Oc1cc(O)cc(/C=C/c2ccc(Br)cc2)c1`, the inhibition in series [1] was 25.2%. The Activity in series [5] turned out to be 2.33 equiv.

Take `CCCN(CCC)c1ccc(/C=C/c2cc(O)cc(O)c2)cc1`: the inhibition in series [1] is 69%. In series [5], the Activity came to 2.37 equiv.

Regarding `COc1cc(/C=C/c2ccc(N(C)C)cc2)cc(OC)c1`, the inhibition in series [1] was found to be 7.02%. Moreover, the Activity in series [5] was 3.46 equiv.

`CN(C)c1ccc(/C=C/c2cc(O)cc(O)c2)cc1`: the inhibition in series [1] was determined as 65.2%. Besides, the figures for the Activity (in series [5]; in the series on SH-SY5Y [7]) were 4.7 equiv and “Non-toxic”, respectively.

In the case of `CN(C)c1ccccc1/C=C/c1cc(O)cc(O)c1`, in series [1], the inhibition worked out at 59.4%. Further, in series [5], the Activity was found to be 2.05 equiv.

As for `CC(C)(C)c1ccc(/C=C/c2cc(O)cc(O)c2)cc1`, in series [1], the inhibition was found to be 43.6%. Also, the Activity in series [5] amounted to 1.28 equiv.

`CC(C)Nc1ccc(/C=C/c2cc(O)cc(O)c2)cc1` had an inhibition in series [1] of 71.7%. Also, the inhibition result in series [2] was “Active”. Further, the Activity in series [5] was 4.12 equiv; in the series on SH-SY5Y [3] it was “Dose-dependent effect”; in the series on SH-SY5Y [8] it was 37%; in the series with SH-SY5Y [7], “Non-toxic”.

In series [1], `CN(C)c1cccc(/C=C/c2cc(O)cc(O)c2)c1` yielded an inhibition of 61.5%. Besides, the Activity in series [5] came out at 3.93 equiv.

Values taken from ChEMBL document CHEMBL2203074 (Bioorg Med Chem Lett, 2012).
